IC50 data for 14 compounds are collected here from US11845748B2, “Bicyclic pyridine N-oxide derivatives useful as a factor XIa inhibitors” (Janssen Pharmaceutica NV, priority 2021, dated 2023).

Each structure is given as a SMILES string.

Usually IC50 stands for the concentration needed to halve the response being measured.

Sequence of Factor XIa (P03951 388-625 limits assumed): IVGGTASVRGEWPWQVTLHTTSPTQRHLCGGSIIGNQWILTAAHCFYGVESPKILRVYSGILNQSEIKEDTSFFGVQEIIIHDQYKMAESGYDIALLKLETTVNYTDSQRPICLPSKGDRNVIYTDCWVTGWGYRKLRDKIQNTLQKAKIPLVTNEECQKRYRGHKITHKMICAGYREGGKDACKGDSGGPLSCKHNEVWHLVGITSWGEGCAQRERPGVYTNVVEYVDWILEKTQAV
Sequence of Factor XIa (P03951 19-387 partner limits assumed): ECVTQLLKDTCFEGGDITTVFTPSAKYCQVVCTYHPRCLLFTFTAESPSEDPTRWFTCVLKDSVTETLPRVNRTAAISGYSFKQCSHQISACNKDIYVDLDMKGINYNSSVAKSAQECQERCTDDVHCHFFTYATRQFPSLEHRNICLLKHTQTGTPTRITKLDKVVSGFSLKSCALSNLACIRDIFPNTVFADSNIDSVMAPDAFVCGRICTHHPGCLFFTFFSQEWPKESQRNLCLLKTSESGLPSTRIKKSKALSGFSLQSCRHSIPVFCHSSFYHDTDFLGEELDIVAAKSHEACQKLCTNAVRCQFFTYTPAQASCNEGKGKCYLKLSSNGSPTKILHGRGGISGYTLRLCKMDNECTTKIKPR

This assay deals with Factor XIa (Homo sapiens, UniProt P03951). Briefly: Factor XIa inhibition assay utilizing a fluorophore-quencher pair peptide substrate (FLINT). The assay is classed as biochemical. The note with it: end point read at 30 min; 30 min preincubation; 5Fam-KLTRAETV-K5Tamra substrate; read-out: FXIa (EP) IC50. From the text:
Biological Example 1: Factor XIa Inhibition Assay Utilizing a Fluorophore-Quencher Pair Peptide Substrate
A fluorescence intensity (FLINT) based assay was used to monitor inhibition of Factor XIa. The peptide substrate, 5Fam-KLTRAETV-K5Tamra (purchased from New England Peptide) was chosen based on the […]. Conversion of zymogen […]. The custom peptide used in this assay was based on the Arg146 cleavage site of FXI. The peptide substrate was designed with a fluorophore-quencher pair, where the fluorescence is quenched until FXIa cleaves the 8-mer peptide after the Arg residue. The substrate KM was fit to a substrate inhibition model whereby kcat=0.86 s^−1, KM=12.4 μM, Ki=61.6 μM with an enzymatic efficiency, and kcat/KM=69523 M^−1s^−1.
The Factor XIa FLINT assay was used with the following 5Fam-KLTRAETV-K5Tamra assay buffer: 50 mM Tris, pH 7.5, 100 mM NaCl, 5 mM CaCl2, 0.1 mg/mL BSA, 0.03% CHAPS. Assay buffer was prepared by mixing all ingredients fresh. 5Fam-KLTRAETV-K5Tamra peptide substrate was first prepared at 10 mM in 100% DMSO, then diluted to 3 mM in 100% DMSO. Assay buffer was then added directly to the 3 mM stock of substrate to prepare the 30 μM 2× working concentration (15 μM final concentration). The 2× Factor XIa stock solution was prepared by diluting 6.562 μM stock in 1× assay buffer for a 200 pM working stock solution (100 pM final concentration).
Test compound(s) were run in an 11-point, 3-fold serial dilution with a final top compound concentration of 100 nM. Final DMSO in assay was 2%. FXIa was preincubated with compound for 30-minutes and then substrate was added to initiate the reaction. The assay was run with either end point (EP) reads at 30 min or kinetic (KIN) reads at 5 min intervals over 30 minutes. The time course was linear using 100 μM FXIa greater than 30 minutes. More specifically, the assay was run as follows: • 100 nL of 0.01 mM test compound was dispensed into black 384-well non-binding Greiner BioOne 784900 plate for 0.1 μM final concentration; • 5 μL of 1× assay buffer was dispensed to column 24 (low control) and 5 μL 2× Factor XIa solution was dispensed to columns 1-23 (column 23 high control); • the plate was centrifuged with a “cover” plate at 500 rpm for 1 min the plate was pre-incubated for 30 minutes at room temperature with plate covered; • 5 μL of 2× 5Fam-KLTRAETV-K5Tamra peptide substrate was dispensed into the entire plate, columns 1-24; • the plate was centrifuged with a “cover” plate at 500 rpm for 1 min; • the plate was read monitoring fluorescence intensity on the BMG PHERAStar at room temperature, using fluorescence module 485 nm/520 nm.
Percent inhibition (IC50) curves were generated per compound tested, and data was analyzed using a 4-parameter logistic fit using GeneData Screener. The relative fluorescence unit (RFU) values were normalized to percent inhibition using the following equation: % inhibition=((HC−LC)−(compound−LC)/(HC−LC))*100 where LC—low control=mean signal of no Factor XIa or 100% inhibition of Factor XIa; HC—high control=mean signal of Factor XIa+5Fam-KLTRAETV-K5Tamra peptide substrate with DMSO only.
An 11-point dose response curve for the test compound(s) was generated using GENDATA to determine IC50 value based on the following equation: Y=Bottom+(Top−Bottom)/(1+10^((log IC50−X)*HillSlope))
where Y is the % inhibition in the presence of X inhibitor concentration, Top=high control=mean signal of Factor XIa+5Fam-KLTRAETV-K5Tamra peptide substrate with DMSO only; Bottom=low control−mean signal of no Factor XIa or 100% inhibition of Factor XIa; HillSlope—Hill coefficient; and IC50=concentration of compound with 50% inhibition in relation to top/high control. […]
Consider `O=C(O)c1ccc(-c2ccn(C3CCc4cc(-c5cc(Cl)ccc5-n5cnnn5)c[n+]([O-])c43)n2)cc1` (racemic) [ID No. 3, 7-(3-(4-Carboxyphenyl)-1H-pyrazol-1-yl)-3-(5-chloro-2-(1H-tetrazol-1-yl)phenyl)-6,7-dihydro-5H-cyclopenta[b]pyridine 1-oxide], for which the IC50 worked out at 320 nM.
Regarding `O=C(O)c1cccc(-c2ccn(C3CCc4cc(-c5cc(Cl)ccc5-n5cnnn5)c[n+]([O-])c43)n2)c1` (racemic) [ID No. 4, 7-(3-(3-Carboxyphenyl)-1H-pyrazol-1-yl)-3-(5-chloro-2-(1H-tetrazol-1-yl)phenyl)-6,7-dihydro-5H-cyclopenta[b]pyridine 1-oxide], the IC50 was found to be 1010 nM.
Under `COC(=O)Nc1ccc(-c2ccn(C3CCc4cc(-c5cc(Cl)ccc5-n5cnnn5)c[n+]([O-])c43)n2)cc1` (racemic) [ID No. 5, 3-(5-Chloro-2-(1H-tetrazol-1-yl)phenyl)-7-(3-(4-((methoxycarbonyl)amino)phenyl)-1H-pyrazol-1-yl)-6,7-dihydro-5H-cyclopenta[b]pyridine 1-oxide] stands 109 nM; under `O=C(O)c1cccc(-c2cnn(C3CCc4cc(-c5cc(Cl)ccc5-n5cnnn5)c[n+]([O-])c43)c2)c1` (racemic) [ID No. 6, 7-(4-(3-Carboxyphenyl)-1H-pyrazol-1-yl)-3-(5-chloro-2-(1H-tetrazol-1-yl)phenyl)-6,7-dihydro-5H-cyclopenta[b]pyridine 1-oxide], 79 nM.
Under `COC(=O)Nc1ccc(-c2cnn(C3CCc4cc(-c5cc(Cl)ccc5-n5cnnn5)c[n+]([O-])c43)c2)cc1` (racemic) [ID No. 7, 3-(5-Chloro-2-(1H-tetrazol-1-yl)phenyl)-7-(4-(4-((methoxycarbonyl)amino)phenyl)-1H-pyrazol-1-yl)-6,7-dihydro-5H-cyclopenta[b]pyridine 1-oxide] stands 9 nM; under `Nc1ccc(-c2cnn(C3CCc4cc(-c5cc(Cl)ccc5-n5cnnn5)c[n+]([O-])c43)c2)c(F)n1` (racemic) [ID No. 10, 7-(4-(6-Amino-2-fluoropyridin-3-yl)-1H-pyrazol-1-yl)-3-(5-chloro-2-(1H-tetrazol-1-yl)phenyl)-6,7-dihydro-5H-cyclopenta[b]pyridine 1-oxide], 27 nM.
`Nc1ccc(-c2cnn(C3CCc4cc(-c5c(-n6cnnn6)ccc(Cl)c5F)c[n+]([O-])c43)c2)c(F)n1` (racemic) [ID No. 11, 7-(4-(6-Amino-2-fluoropyridin-3-yl)-1H-pyrazol-1-yl)-3-(3-chloro-2-fluoro-6-(1H-tetrazol-1-yl)phenyl)-6,7-dihydro-5H-cyclopenta[b]pyridine 1-oxide]: the IC50 is 11 nM.
For `Nc1ccc(-c2cnn(C3CCc4cc(-c5cc(Cl)ccc5-n5cnnn5)c[n+]([O-])c43)c2)cc1` (racemic) [ID No. 12, 7-(4-(4-Aminophenyl)-1H-pyrazol-1-yl)-3-(5-chloro-2-(1H-tetrazol-1-yl)phenyl)-6,7-dihydro-5H-cyclopenta[b]pyridine 1-oxide], the IC50 was found to be 220 nM.
As for `COC(=O)Nc1ccc(-c2cnn(C3CCc4cc(-c5cc(Cl)ccc5OCC(F)(F)F)c[n+]([O-])c43)c2)cc1` (racemic) [ID No. 15, 3-(5-Chloro-2-(2,2,2-trifluoroethoxy)phenyl)-7-(4-(4-((methoxycarbonyl)amino)phenyl)-1H-pyrazol-1-yl)-6,7-dihydro-5H-cyclopenta[b]pyridine 1-oxide], the IC50 came to 1690 nM.
As to `COC(=O)Nc1ccc(-c2cnn(C3CCc4cc(-c5c(-n6cnnn6)ccc(Cl)c5F)c[n+]([O-])c43)c2)cc1` (single isomer, unassigned) [ID No. 8, (R*)3-(3-Chloro-2-fluoro-6-(1H-tetrazol-1-yl)phenyl)-7-(4-(4-((methoxycarbonyl)amino)phenyl)-1H-pyrazol-1-yl)-6,7-dihydro-5H-cyclopenta[b]pyridine 1-oxide], the IC50 worked out at 3260 nM.
Take `COC(=O)Nc1ccc(-c2cn(C3CCc4cc(-c5c(-n6cnnn6)ccc(Cl)c5F)c[n+]([O-])c43)nc2C)cc1` (single isomer, unassigned) [ID No. 13, (R*)3-(3-Chloro-2-fluoro-6-(1H-tetrazol-1-yl)phenyl)-7-(4-(4-((methoxycarbonyl)amino)phenyl)-3-methyl-1H-pyrazol-1-yl)-6,7-dihydro-5H-cyclopenta[b]pyridine 1-oxide]: the IC50 was 837 nM.
As for `COC(=O)Nc1ccc(-c2cn(C3CCc4cc(-c5c(-n6cnnn6)ccc(Cl)c5F)c[n+]([O-])c43)nc2C)cc1` (single isomer, unassigned) [ID No. 14, (S*)-3-(3-Chloro-2-fluoro-6-(1H-tetrazol-1-yl)phenyl)-7-(4-(4-((methoxycarbonyl)amino)phenyl)-3-methyl-1H-pyrazol-1-yl)-6,7-dihydro-5H-cyclopenta[b]pyridine 1-oxide], the half-maximal inhibitory concentration (IC50) turned out to be 16 nM.
Under `O=C(O)c1ccc2nn(C3CCc4cc(-c5cc(Cl)ccc5-n5cnnn5)c[n+]([O-])c43)cc2c1` (centres unmarked) [ID No. 1, 7-(5-Carboxy-2H-indazol-2-yl)-3-(5-chloro-2-(1H-tetrazol-1-yl)phenyl)-6,7-dihydro-5H-cyclopenta[b]pyridine 1-oxide] stands 2850 nM; under `COC(=O)Nc1ccc(-c2cnn([C@@H]3CCc4cc(-c5c(-n6cnnn6)ccc(Cl)c5F)c[n+]([O-])c43)c2)cc1` [ID No. 9, (R)-3-(3-chloro-2-fluoro-6-(1H-tetrazol-1-yl)phenyl)-7-(4-(4-((methoxycarbonyl)amino)phenyl)-1H-pyrazol-1-yl)-6,7-dihydro-5H-cyclopenta[b]pyridine 1-oxide], 3 nM.
